Laboratory results reported in patent US20170050966A1, “INHIBITING THE TRANSIENT RECEPTOR POTENTIAL A1 ION CHANNEL” (HYDRA BIOSCIENCES, INC., priority 2014, published 2017).
Converted amounts (≈) assume the structure as drawn. One block for each compound: values may come before it.

How the values were obtained:
CYP1A2 = target: T1, CYP1A2 (Homo sapiens, UniProt P05177); assay: P450 Cyp-inhibition luminescent assay; assay type: biochemical
T1 sequence (P05177 1-516): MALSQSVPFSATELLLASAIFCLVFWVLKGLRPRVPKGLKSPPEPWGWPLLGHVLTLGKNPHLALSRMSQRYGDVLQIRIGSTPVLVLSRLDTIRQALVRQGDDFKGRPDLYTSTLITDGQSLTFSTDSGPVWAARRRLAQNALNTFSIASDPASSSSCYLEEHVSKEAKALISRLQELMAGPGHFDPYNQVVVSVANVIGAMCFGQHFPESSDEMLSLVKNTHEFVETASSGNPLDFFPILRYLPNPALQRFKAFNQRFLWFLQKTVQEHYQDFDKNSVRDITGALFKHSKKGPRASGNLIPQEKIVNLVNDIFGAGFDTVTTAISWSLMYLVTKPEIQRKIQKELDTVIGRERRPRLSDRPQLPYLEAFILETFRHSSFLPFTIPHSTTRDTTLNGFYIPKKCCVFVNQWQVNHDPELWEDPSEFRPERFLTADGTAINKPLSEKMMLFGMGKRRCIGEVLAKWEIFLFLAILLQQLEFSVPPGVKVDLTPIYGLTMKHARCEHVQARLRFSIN
Method: (§1) The ability of Compound 2 to inhibit human CYP450 enzymes was evaluated. Compound 1 and Compound 2 were tested in standard P450 Cyp-inhibition luminescent assay.

CYP2C19 = CYP2C19 (Homo sapiens, UniProt P33261); assay: P450 Cyp-inhibition luminescent assay; assay type: biochemical
CYP2C19, sequence (P33261 whole entry): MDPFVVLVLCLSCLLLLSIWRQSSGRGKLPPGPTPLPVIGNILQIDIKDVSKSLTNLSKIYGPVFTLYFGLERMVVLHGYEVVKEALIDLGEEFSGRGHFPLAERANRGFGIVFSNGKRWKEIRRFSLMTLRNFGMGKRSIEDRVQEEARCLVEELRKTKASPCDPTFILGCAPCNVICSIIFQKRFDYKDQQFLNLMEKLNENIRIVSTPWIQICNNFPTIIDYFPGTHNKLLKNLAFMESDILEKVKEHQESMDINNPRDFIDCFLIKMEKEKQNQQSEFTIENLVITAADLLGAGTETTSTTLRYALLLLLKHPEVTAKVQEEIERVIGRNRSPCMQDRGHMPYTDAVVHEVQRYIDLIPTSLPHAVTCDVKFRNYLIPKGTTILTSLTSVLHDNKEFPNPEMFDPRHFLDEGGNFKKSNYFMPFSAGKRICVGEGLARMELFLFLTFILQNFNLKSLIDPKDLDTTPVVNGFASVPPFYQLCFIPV
Method: as §1

CYP2C9 [1] = target: T2, CYP2C9 (Homo sapiens, UniProt P11712); assay: P450 Cyp-inhibition luminescent assay; assay type: biochemical
T2 sequence (P11712 whole entry): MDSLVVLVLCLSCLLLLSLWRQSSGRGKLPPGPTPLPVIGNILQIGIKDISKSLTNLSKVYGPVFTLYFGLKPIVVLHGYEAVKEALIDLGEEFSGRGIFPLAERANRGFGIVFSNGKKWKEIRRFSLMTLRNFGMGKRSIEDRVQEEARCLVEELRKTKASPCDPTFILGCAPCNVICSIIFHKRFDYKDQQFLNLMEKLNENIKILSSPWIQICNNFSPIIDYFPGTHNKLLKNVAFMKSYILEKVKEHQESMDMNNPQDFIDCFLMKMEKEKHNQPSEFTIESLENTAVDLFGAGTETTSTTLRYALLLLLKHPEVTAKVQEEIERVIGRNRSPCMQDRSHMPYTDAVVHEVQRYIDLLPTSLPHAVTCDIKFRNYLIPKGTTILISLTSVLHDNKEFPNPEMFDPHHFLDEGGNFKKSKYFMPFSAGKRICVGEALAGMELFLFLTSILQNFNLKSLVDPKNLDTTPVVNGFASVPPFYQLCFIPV
Method: as §1

[2] = Solubility in simulated gastrointestinal fluid (SGF); assay type: physicochemical; details: simulated gastric fluid, thermodynamic from solid, HCl 0.1N at 25° C.
Method: Solubility was further assessed in simulated gastrointestinal fluid (SGF) (HCl 0.1N at 25° C.). Briefly, compound was agitated for 30 hours and sampled, centrifuged, and analyzed by UPLC.

rTRPA1 = target: T3, rTRPA1 (Rattus norvegicus, UniProt Q6RI86); assay: TRPA1 IC50, whole-cell patch clamp; assay type: cell-based; details: rTRPA1, 10 μM AITC; read-out: IC50 Inward current
T3 construct: expressed in transfected cells
T3 sequence (Q6RI86 whole entry): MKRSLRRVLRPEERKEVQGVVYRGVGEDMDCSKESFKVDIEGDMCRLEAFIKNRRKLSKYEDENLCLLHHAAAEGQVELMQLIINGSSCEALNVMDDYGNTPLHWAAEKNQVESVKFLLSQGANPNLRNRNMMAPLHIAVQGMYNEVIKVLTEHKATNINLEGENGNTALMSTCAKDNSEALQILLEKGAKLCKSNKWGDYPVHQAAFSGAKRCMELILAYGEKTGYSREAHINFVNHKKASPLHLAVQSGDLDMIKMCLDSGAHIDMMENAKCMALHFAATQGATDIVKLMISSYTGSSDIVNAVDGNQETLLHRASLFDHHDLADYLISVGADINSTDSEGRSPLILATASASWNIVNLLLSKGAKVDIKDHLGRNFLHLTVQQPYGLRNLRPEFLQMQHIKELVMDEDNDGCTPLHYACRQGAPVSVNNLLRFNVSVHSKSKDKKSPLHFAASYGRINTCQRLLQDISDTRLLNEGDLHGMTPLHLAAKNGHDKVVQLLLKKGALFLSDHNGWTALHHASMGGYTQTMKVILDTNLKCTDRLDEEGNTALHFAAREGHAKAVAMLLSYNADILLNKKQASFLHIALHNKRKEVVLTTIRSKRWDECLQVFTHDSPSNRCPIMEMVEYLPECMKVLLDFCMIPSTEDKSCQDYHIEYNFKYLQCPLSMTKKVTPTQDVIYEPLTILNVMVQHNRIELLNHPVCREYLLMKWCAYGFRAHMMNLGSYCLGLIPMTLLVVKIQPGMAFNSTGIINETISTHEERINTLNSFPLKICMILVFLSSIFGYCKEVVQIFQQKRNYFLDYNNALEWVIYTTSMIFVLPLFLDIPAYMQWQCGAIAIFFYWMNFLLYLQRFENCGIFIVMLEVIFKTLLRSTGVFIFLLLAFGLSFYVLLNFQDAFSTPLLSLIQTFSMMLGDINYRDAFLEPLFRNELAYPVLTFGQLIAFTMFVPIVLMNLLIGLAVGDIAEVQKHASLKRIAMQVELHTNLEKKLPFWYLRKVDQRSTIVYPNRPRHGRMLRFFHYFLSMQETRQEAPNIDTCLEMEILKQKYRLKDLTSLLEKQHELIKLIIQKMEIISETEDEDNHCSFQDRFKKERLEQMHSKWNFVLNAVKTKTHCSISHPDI

sheepTRPA1 = sheepTRPA1 (Ovis aries, UniProt A0ACI6QTQ3); assay: TRPA1 IC50, whole-cell patch clamp; assay type: cell-based, Sheep; details: sheepTRPA1, 20 μM AITC; read-out: IC50 Inward current
sheepTRPA1, sequence (A0ACI6QTQ3 entry or part of it): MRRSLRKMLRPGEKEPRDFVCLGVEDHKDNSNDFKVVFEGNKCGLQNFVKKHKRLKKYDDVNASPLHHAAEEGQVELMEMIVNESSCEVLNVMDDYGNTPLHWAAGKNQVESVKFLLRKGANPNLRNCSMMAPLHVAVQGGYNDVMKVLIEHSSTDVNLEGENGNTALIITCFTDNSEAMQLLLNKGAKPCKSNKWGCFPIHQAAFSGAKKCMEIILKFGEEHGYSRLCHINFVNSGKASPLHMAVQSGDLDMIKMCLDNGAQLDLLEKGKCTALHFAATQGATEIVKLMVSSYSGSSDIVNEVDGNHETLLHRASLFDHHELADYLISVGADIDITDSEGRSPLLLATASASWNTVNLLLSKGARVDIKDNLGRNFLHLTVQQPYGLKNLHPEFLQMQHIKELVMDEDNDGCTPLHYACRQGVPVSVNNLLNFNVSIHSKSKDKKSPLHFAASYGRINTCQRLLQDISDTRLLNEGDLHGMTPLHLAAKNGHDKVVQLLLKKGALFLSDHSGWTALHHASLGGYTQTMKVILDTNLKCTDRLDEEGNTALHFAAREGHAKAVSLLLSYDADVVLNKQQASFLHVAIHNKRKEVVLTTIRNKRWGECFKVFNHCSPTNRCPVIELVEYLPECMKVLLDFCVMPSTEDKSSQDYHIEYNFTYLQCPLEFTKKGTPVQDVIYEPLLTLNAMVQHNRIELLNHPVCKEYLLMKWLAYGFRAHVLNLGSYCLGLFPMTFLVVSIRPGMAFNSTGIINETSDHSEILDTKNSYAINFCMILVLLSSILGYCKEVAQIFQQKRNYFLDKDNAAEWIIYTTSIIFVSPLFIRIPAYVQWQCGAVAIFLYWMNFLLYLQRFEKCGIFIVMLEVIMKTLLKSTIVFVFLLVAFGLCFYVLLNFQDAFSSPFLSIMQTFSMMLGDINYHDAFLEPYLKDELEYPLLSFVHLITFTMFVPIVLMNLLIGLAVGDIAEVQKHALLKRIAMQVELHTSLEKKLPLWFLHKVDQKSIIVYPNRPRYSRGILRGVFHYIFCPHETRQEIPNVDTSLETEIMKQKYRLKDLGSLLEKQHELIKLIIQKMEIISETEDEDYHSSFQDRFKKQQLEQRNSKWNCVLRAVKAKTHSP

[3] = Oral PK and bioavailability of micronized Compound 2 suspension; assay type: in vivo; details: fasted cynomolgus monkeys
Method: Additional studies were conducted with micronized Compound 2 in rat, dogs (beagles), and cynomolgus monkeys. Animals received a 10 mg/kg dose oral dose of compound formulated as a suspension in 0.5% methyl cellulose in water for injection at a target concentration of 1 mg/mL, and administered a dose volume of 10 mL/kg by oral gavage in rats or fasted dogs and via oral delivery in fasted cynomolgus monkeys. The % F for the rats in these studies was 85%, 36% for the dogs, and 19% for the monkeys. FIG. 11 depicts the pharmacokinetic profile for these species.
Three studies were conducted in fasted cynomolgus monkeys to determine the PK profile and bioavailability of a suspension formulation of Compound 2. Three monkeys were administered a suspension containing 10 mg/kg micronized Compound 2 by oral gavage. Monkeys were bled before dosing and at 0.25, 0.50, 1, 2, 4, 6, 12, and 24 hours post-dosing. Compound 2 plasma levels were determined by LC/MS/MS. Additional studies were conducted to evaluate the PK profile at higher dose levels of Compound 2 administered to fasted monkeys as an oral suspension. Blood samples were collected prior to dosing and up to 24 hours post-dosing. An additional 48 hour blood sample was collected from monkeys dosed with 300 mg/kg Compound 2. Plasma levels of Compound 2 were determined by LC/MS/MS.

beagle dogs = assay: Hepatotoxicity safety profile, serum biomarkers; assay type: in vivo; details: for ALP d-5 / ALT d-5 / AST d-5 / GGT d-5: day -5 before dosing; for ALP d5 / ALT d5 / AST d5 / GGT d5: day 5
Method: Compound 2 in vehicle (0.5% methylcellulose [400 cps] in deionized water) was administered orally once daily for five consecutive days by gavage once to 3 groups of non-naïve male and female beagle dogs. Each group received one dose level. […] […] The dose volume was 10 ml/kg for all groups. Hepatoxicity was measured via the serum biomarkers of alanine aminotransferease [ALT], aspartate aminotransferase [AST], alkaline phosphastase [ALP] and gamma-glutamyl transferase [GGT] which represent hepatotoxicity or bile duct injury.

sprague-dawley rats = assay: Hepatotoxicity safety profile, serum biomarkers; assay type: in vivo; details: for ALP d28 / ALT d28 / AST d28 / GGT d28: day 28
Method: Compound 2 in the vehicle (0.5% methylcellulose [400 cps]) was administered orally by gavage once daily for a minimum of 28 consecutive days to 3 groups of sprague-dawley rats from Charles River Laboratories. Each group received one dosage level. Dosage levels were 30, 100, and 300 mg/kg/day for each group. […] The dose volume was 10 ml/kg for all groups. Hepatoxicity was measured via the serum biomarkers of alanine aminotransferease [ALT], aspartate aminotransferase [AST], alkaline phosphastase [ALP] and gamma-glutamyl transferase [GGT] which represent hepatotoxicity or bile duct injury.

CYP2B6 = CYP2B6 (Homo sapiens, UniProt P20813); assay: in vitro; details: probe Buproprion
CYP2B6, sequence (P20813 whole entry): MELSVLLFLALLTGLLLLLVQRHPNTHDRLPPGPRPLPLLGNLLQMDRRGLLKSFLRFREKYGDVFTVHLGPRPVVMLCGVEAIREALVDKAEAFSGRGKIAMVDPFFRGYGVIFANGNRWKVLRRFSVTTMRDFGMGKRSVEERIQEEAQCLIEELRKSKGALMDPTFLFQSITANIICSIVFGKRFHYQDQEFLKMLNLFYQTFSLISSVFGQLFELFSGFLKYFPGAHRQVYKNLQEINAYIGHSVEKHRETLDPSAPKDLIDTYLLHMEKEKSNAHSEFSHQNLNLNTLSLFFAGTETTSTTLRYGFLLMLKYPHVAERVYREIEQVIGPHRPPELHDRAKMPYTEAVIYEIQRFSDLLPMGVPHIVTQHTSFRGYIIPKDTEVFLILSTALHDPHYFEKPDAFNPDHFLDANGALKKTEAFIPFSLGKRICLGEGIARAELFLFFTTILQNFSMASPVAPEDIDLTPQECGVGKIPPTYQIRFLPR

CYP2C9 [4] = target: T2, CYP2C9; assay: in vitro; details: probe Diclofenac

CYP 1A2: % Inhibition (CYP1A2): 4.2%
CYP 2C19: % Inhibition (CYP2C19): 45.9%
CYP 2C9: % Inhibition (CYP2C9 [1]): 71.4%
Compound: C[C@@H](C(=O)Nc1ccnc(-c2cnc(N3CCCC3(C)C)nc2)n1)n1cnc2c1c(=O)n(C)c(=O)n2C [Compound 1, (S)-2-(1,3-dimethyl-2,6-dioxo-2,3-dihydro-1H-purin-7(6H)-yl)-N-(2′-(2,2-dimethylpyrrolidin-1-yl)-[2,5′-bipyrimidin]-4-yl)propanamide]

solubility at 30 h [2]: 1050 µg/mL (≈ 1930 µM)
IC50 (rTRPA1): 0.0229 ± 0.0046 µM
IC50 (sheepTRPA1): 3.28 ± 0.64 µM
bioavailability ([3]; cynomolgus monkey, plasma, 10 mg/kg oral, micronized suspension): 19%
Exposures on an AUC and Cmax basis versus dose ([3]; oral suspension): increased with doses up to 1000 mg/kg
CYP 1A2: % Inhibition (CYP1A2): 0.299%
CYP 2C19: % Inhibition (CYP2C19): 29.1%
CYP 2C9: % Inhibition (CYP2C9 [1]): 39.6%
inhibition at 10 µM (CYP2B6): 15.1%
inhibition at 10 µM (CYP2C9 [4]): 22%
Compound: C[C@@H](C(=O)Nc1ccnc(-c2cnc(N3CCC[C@H]3C(F)(F)F)nc2)n1)n1cnc2c1c(=O)n(C)c(=O)n2C [Compound 2, (S)-2-(1,3-dimethyl-2,6-dioxo-2,3-dihydro-1H-purin-7(6H)-yl)-N-(2′-((S)-2-(trifluoromethyl)pyrrolidin-1-yl)-[2,5′-bipyrimidin]-4-yl)propanamide]
ALP d-5 (beagle dogs; 30 mg/kg group): 93.0 U/L
ALT d-5 (beagle dogs; 30 mg/kg group): 19.0 U/L
AST d-5 (beagle dogs; 30 mg/kg group): 20.0 U/L
GGT d-5 (beagle dogs; 30 mg/kg group): 0.0 U/L
ALP d5 (beagle dogs; 30 mg/kg oral once daily): 143.0 U/L
ALT d5 (beagle dogs; 30 mg/kg oral once daily): 20.0 U/L
AST d5 (beagle dogs; 30 mg/kg oral once daily): 22.0 U/L
GGT d5 (beagle dogs; 30 mg/kg oral once daily): 0.0 U/L
ALP d-5 (beagle dogs; 100 mg/kg group): 120.0 U/L
ALT d-5 (beagle dogs; 100 mg/kg group): 21.0 U/L
AST d-5 (beagle dogs; 100 mg/kg group): 20.0 U/L
GGT d-5 (beagle dogs; 100 mg/kg group): 0.0 U/L
ALP d5 (beagle dogs; 100 mg/kg oral once daily): 141.0 U/L
ALT d5 (beagle dogs; 100 mg/kg oral once daily): 19.0 U/L
AST d5 (beagle dogs; 100 mg/kg oral once daily): 21.0 U/L
GGT d5 (beagle dogs; 100 mg/kg oral once daily): 0.5 U/L
ALP d-5 (beagle dogs; 300 mg/kg group): 118.0 U/L
ALT d-5 (beagle dogs; 300 mg/kg group): 28.0 U/L
AST d-5 (beagle dogs; 300 mg/kg group): 22.0 U/L
GGT d-5 (beagle dogs; 300 mg/kg group): 0.0 U/L
ALP d5 (beagle dogs; 300 mg/kg oral once daily): 101.0 U/L
ALT d5 (beagle dogs; 300 mg/kg oral once daily): 21.0 U/L
AST d5 (beagle dogs; 300 mg/kg oral once daily): 22.0 U/L
GGT d5 (beagle dogs; 300 mg/kg oral once daily): 0.0 U/L
serum biomarkers of hepatotoxicity (ALT, AST, ALP, GGT) (beagle dogs; beagle dogs, oral once daily for five days): did not elevate the serum biomarkers up to and including a dose of 300 mg/kg
ALP d28 (sprague-dawley rats; 30 mg/kg/day oral): 168.0 U/L
ALT d28 (sprague-dawley rats; 30 mg/kg/day oral): 33.0 U/L
AST d28 (sprague-dawley rats; 30 mg/kg/day oral): 98.0 U/L
GGT d28 (sprague-dawley rats; 30 mg/kg/day oral): 0.0 U/L
ALP d28 (sprague-dawley rats; 100 mg/kg/day oral): 185.0 U/L
ALT d28 (sprague-dawley rats; 100 mg/kg/day oral): 34.0 U/L
AST d28 (sprague-dawley rats; 100 mg/kg/day oral): 100.0 U/L
GGT d28 (sprague-dawley rats; 100 mg/kg/day oral): 0.0 U/L
ALP d28 (sprague-dawley rats; 300 mg/kg/day oral): 163.0 U/L
ALT d28 (sprague-dawley rats; 300 mg/kg/day oral): 43.0 U/L
AST d28 (sprague-dawley rats; 300 mg/kg/day oral): 115.0 U/L
GGT d28 (sprague-dawley rats; 300 mg/kg/day oral): 0.0 U/L
serum biomarkers of hepatotoxicity (ALT, AST, ALP, GGT) (sprague-dawley rats; sprague-dawley rats, oral once daily for 28 days): did not elevate the serum biomarkers up to and including a dose of 300 mg/kg
